Assay results: patent US8558028B2, “Compound capable of inhibiting 17-beta hydroxysteriod dehydrogenase” (University of Bath of Claverton Down, priority 2007, dated 2013)

biological target: T1, human 17β-HSD3 (Homo sapiens, UniProt P37058); experiment: 17β-Hydroxysteroid dehydrogenase Type 3 activity in stably transfected 293-EBNA cells (TLC assay, 3H-androstenedione to testosterone); assay type: cell-based; details: human 293-EBNA cells stably transfected with 17β-HSD Type 3, mean of at least 2 measurements, typically SD ±5%
T1 construct: 293-EBNA cells stably transfected with 17β-HSD Type 3; expressed in transfected cells; host or cells: human 293-EBNA cells, stably transfected
T1 sequence (P37058 1-310): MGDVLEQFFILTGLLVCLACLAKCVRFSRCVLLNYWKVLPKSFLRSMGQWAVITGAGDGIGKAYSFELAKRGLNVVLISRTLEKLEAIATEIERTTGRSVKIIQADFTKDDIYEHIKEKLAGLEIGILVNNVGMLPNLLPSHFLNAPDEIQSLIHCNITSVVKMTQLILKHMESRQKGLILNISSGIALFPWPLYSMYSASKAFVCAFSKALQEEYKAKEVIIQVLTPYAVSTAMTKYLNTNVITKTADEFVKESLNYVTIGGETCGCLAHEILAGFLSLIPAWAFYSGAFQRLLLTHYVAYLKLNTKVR
Description: Assay Protocol-17β-Hydroxysteroid Dehydrogenase Type 3 Activity in the Presence of Regulatory Agents
293-EBNA cells stably transfected with 17β-HSD Type 3 were plated at 50,000 cells/well in 24 well plates in complete growth medium. After 48 hours 2-3 nM ^3H-Androstenedione in assay medium (500 ml DMEM medium with 5 ml 100×L-Glutamine, and 5 ml 7.5% sodium bicarbonate solution) was added with or without test compound at 1.5 ml/well (triplicate), and the cells incubated at 37° C.
Two hours later 1 ml medium was removed from each well and placed in a 125×16 mm glass test tube containing 25 μl of recovery solution (5000 dpm ^14C-Testosterone and 25 μg unlabelled
Testosterone). Ether (4 ml) was added and the tubes vortexed at high speed for 2×30 sec. After the samples had settled into two phases they were snap-frozen in a dry ice/methanol bath. The upper organic phase was decanted into 75×12 mm tubes and evaporated to dryness under an airstream using a sample concentrator (TECHNE) at 40° C. The samples were resuspended in ether (8 drops, then a further 3), spotted onto silica 60 F254 20 cm×20 cm TLC plates, and separated using a 4:1 v/v dichloromethane:ethyl acetate mobile phase.
After drying the plates, the major spots were marked under a UV lamp, cut out, and placed in individual scintillation vials containing 0.5 ml methanol. These were then shaken lightly and allowed to stand for 15 min before adding 10 ml of EcoScint A (scintillation fluid) to each tube along with 0.5 ml assay medium, and counted in a scintillation spectrometer (Beckman) using a program for dual [^3H/^14C] isotopes. The number of cells/well was then counted using a Coulter counter (Beckman).
The inhibitory activity of the test compounds is then assessed by calculating the amount of product formed correcting for crossover between isotope counts, recovery, dilution and non-enzymatic degradation (fmol/hr/million cells) with and without inhibitor, (% inhibition).
Compounds were tested at 10 μM for inhibition of human 17β-HSD3 with typically ˜200,000 to 300,000 human 293-EBNA cells/well.

SMILES | inhibition at 10 µM [%]
CC(=O)Nc1ccccc1CNc1ccccc1Oc1ccc(OC(F)(F)F)cc1 | > 60
CC(=O)Nc1cc2c(cc1CNc1ccccc1Oc1ccc(Cl)cc1)OCO2 | > 60
COc1cc(CNc2ccccc2Oc2ccc(Cl)cc2)c(NC(C)=O)cc1OC | < 20
COc1cc(CNc2ccccc2Oc2ccc(Cl)cc2Cl)c(NC(C)=O)cc1OC | < 20
CC(=O)Nc1c(CNc2ccccc2Oc2ccc(Cl)cc2)ccc2ccccc12 | < 20
CC(=O)Nc1ccc(Cl)cc1CNc1ccccc1Oc1ccc(Cl)cc1Cl | 20 to 60
CC(=O)Nc1ccc(Cl)cc1CNc1ccccc1Oc1ccc(OC(F)(F)F)cc1 | > 60
O=C(Nc1ccccc1C(=O)Nc1ccccc1Oc1ccc(Cl)cc1)c1ccccc1 | < 20
CC(=O)Nc1ccc(CNc2ccccc2Oc2ccc(Cl)cc2)cc1 | 20 to 60
CC(=O)Nc1ccc(CNc2ccccc2Oc2ccc(Cl)cc2Cl)cc1 | < 20
CC(=O)N1CCC(Nc2ccccc2CNc2ccccc2Oc2ccc(Cl)cc2)CC1 | 20 to 60
CC(=O)N1CCC(C(=O)Nc2ccccc2CNc2ccccc2Oc2ccc(Cl)cc2)CC1 | > 60
CC(=O)N1CCC(C(=O)Nc2cccc(CNc3ccccc3Oc3ccc(Cl)cc3)c2)CC1 | > 60
CCNc1ccccc1C(C)Nc1ccccc1Oc1ccc(Cl)cc1 (centres unmarked) | 20 to 60
CC(=O)Nc1ccccc1C(Cc1ccccc1)Nc1ccccc1Oc1ccc(Cl)cc1 (centres unmarked) | < 20

Further lines, results first:

inhibition at 10 µM [%] | SMILES
> 60 | CC(=O)Nc1ccccc1CNc1ccccc1Oc1ccc(Cl)cc1
> 60 | CC(=O)Nc1ccccc1CNc1cc(F)ccc1Oc1ccc(Cl)cc1
> 60 | CC(=O)Nc1ccc(C)cc1CNc1ccccc1Oc1ccc(Cl)cc1
> 60 | CC(=O)Nc1ccc(Cl)cc1CNc1ccccc1Oc1ccc(Cl)cc1
< 20 | CC(=O)Nc1ccccc1C(=O)Nc1ccccc1Oc1ccc(Cl)cc1
> 60 | CC(=O)N(C)c1ccccc1CNc1ccccc1Oc1ccc(Cl)cc1
20 to 60 | CC(=O)N(C)c1ccccc1CN(C)c1ccccc1Oc1ccc(Cl)cc1
< 20 | CC(=O)Nc1ccccc1CN(C)c1ccccc1Oc1ccc(Cl)cc1
< 20 | CC(=O)Nc1ccccc1CN(C(C)=O)c1ccccc1Oc1ccc(Cl)cc1
20 to 60 | CC(=O)Nc1cccc(CNc2ccccc2Oc2ccc(Cl)cc2)c1
20 to 60 | CC(=O)N1CCC(Nc2ccccc2CN(C(C)=O)c2ccccc2Oc2ccc(Cl)cc2)CC1
> 60 | CCN(C(C)=O)c1ccccc1C(C)Nc1ccccc1Oc1ccc(Cl)cc1 (centres unmarked)
> 60 | C=CCC(Nc1ccccc1Oc1ccc(Cl)cc1)c1ccccc1NC(C)=O (centres unmarked)
20 to 60 | C=CC[C@@H](Nc1ccccc1Oc1ccc(Cl)cc1)c1ccccc1NC(C)=O
> 60 | C=CC[C@H](Nc1ccccc1Oc1ccc(Cl)cc1)c1ccccc1NC(C)=O
> 60 | CCCC(Nc1ccccc1Oc1ccc(Cl)cc1)c1ccccc1NC(C)=O (centres unmarked)
> 60 | CC(=O)Nc1ccccc1C(C)Nc1ccccc1Oc1ccc(Cl)cc1 (centres unmarked)
